Key:
[1] = test system: HER3-ss+4aa/Gaussia Luciferase; assay: Dox-Induced Her3-ss-Gluc Assay; type: cell-based; conditions: 24 hr Dox induction; 293FRT/TO cells; mean; read-out: 24 hr Dox Inducible Her3(ss + 4)Gluc 293FRT/TO: Mean IC50
In short: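 Flp-In 293 T-REx cells, stable HER3-ss+4aa/Gaussia luciferase insert, hygromycin/blasticidin selected; plated day before; compound in DMSO/media + doxycycline; 37° C., 5% CO2.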

[2] = test system: multiple myeloma cell line U266B1; assay: U266 Cell Viability Assay; type: cell-based, human; conditions: Homo sapiens, U-266, 48 h, U266B1 cells, Celltiter-Glo
In short: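 Luminescent ATP read-out (CellTiter-Glo) after 48 h compound exposure at 37° C., 5% CO2; cells maintained in RPMI 1640/10% FBS/2 mM glutamine/pen-strep, compounds diluted in DMSO/media.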

[3] = Liver Microsome Stability Assay (rat); conditions: rat liver microsomes, with NADPH, 1.0 uM compound
Experimental: (§1) Stability of a compound was assessed in the presence of liver microsomes from various sources—mouse, rat, monkey and human liver microsomes. 1.0 uM compound, 0.4% DMSO in 0.1 M Potassium Phosphate with 1.0 mg/mL liver microsomes, were incubated at 37° C. with or without 1 mM NADPH. The samples were quenched at 0, and 30 minutes.

[4] = test system: PD1-ss+10aa/Gaussia Luciferase; assay: Dox-Induced PD1-ss-Gluc Assay; type: cell-based; conditions: 24 hr Dox induction; 293FRT/TO cells; mean; read-out: 24 hr Dox Inducible PD1ssGluc 293FRT/TO: Mean IC50
In short: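 Gaussia luciferase fused downstream of the PD1 signal peptide plus 10 residues was expressed on doxycycline induction in stably transfected Flp-In 293 T-REx cells. Compounds were added with doxycycline and incubated at 37 °C, 5% CO2.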

[5] = test system: IL-2-FL/Gaussia Luciferase; assay: Dox Induced IL2-FL-Gluc Assay; type: cell-based; conditions: for IC50: 24 hr Dox induction, 293FRT/TO cells, mean, read-out: 24 hr Dox Inducible IL2FLGluc 293FRT/TO: Mean IC50; for 24 hr Dox Inducible IL2FLGluc 293FRT/TO: IL2/PD1: ratio of IL2FLGluc IC50 to PD1ssGluc IC50, '<=>' given where both are I.A.
In short: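 Stable Flp-In 293 T-REx line, Tet-regulated IL-2 (aa 1-153)–Gaussia luciferase fusion; hygromycin/blasticidin selected. Plated day -1; compound + doxycycline added next day; 37° C, 5% CO2.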

[6] = Liver Microsome Stability Assay (monkey); conditions: monkey liver microsomes, with NADPH, 1.0 uM compound
Experimental: as §1

[7] = Liver Microsome Stability Assay (mouse); conditions: mouse liver microsomes, with NADPH, 1.0 uM compound
Experimental: as §1

[8] = test system: TNFα-FL/Gaussia Luciferase; assay: Dox Induced TNFα-FL-Gluc Assay; type: cell-based; conditions: for IC50: 24 hr Dox induction, 293FRT/TO cells, mean, read-out: 24 hr Dox Inducible TNFaFLGluc 293FRT/TO: Mean IC50; for 24 hr Dox Inducible TNFaFLGluc 293FRT/TO: TNF/PD1: ratio of TNFaFLGluc IC50 to PD1ssGluc IC50, '<=>' given where both are I.A.
In short: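 Cell line: stable Flp-In 293 T-REx, TNFα-FL(1-233)-Gaussia luciferase fusion, T-REx-inducible. Plated day -1; compounds in DMSO/media + doxycycline, 37 °C, 5% CO2. Undefined stereocentres = mixture tested.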

[9] = Liver Microsome Stability Assay (human); conditions: human liver microsomes, with NADPH, 1.0 uM compound
Experimental: as §1

[10] = test system: multiple myeloma cell line NCI-H929; assay: H929 Cell Viability Assay; type: cell-based, human; conditions: Homo sapiens, NCI-H929, 48 h, NCI-H929 cells, Celltiter-Glo
In short: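 Cells in RPMI 1640/10% FBS; compound dilutions in DMSO/media; 48 h, 37° C, 5% CO2; CellTiter-Glo luciferase readout for viability.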

SMILES: Cc1nc(CCc2csc(NC(=O)c3cccn3Cc3ccncc3)n2)co1 [Compound E4]
- IC50 [1]: 5.08 µM
- EC50 [2]: > 25 µM
- Liver Microsome Stability (Multiple Species): Rat - % Remaining after 30 min w/NADPH [3]: 0.19%
- IC50 [4]: 0.439 µM
- IC50 [5]: 5.2 µM
- 24 hr Dox Inducible IL2FLGluc 293FRT/TO: IL2/PD1 [5]: 12
- Liver Microsome Stability (Multiple Species): Monkey - % Remaining after 30 min w/NADPH [6]: 0.14%
- Liver Microsome Stability (Multiple Species): Mouse - % Remaining after 30 min w/NADPH [7]: 0.27%
- IC50 [8]: > 25 µM
- 24 hr Dox Inducible TNFaFLGluc 293FRT/TO: TNF/PD1 [8]: >57.0
- Liver Microsome Stability (Multiple Species): Human - % Remaining after 30 min w/NADPH [9]: 0.12%
- EC50 [10]: > 25 µM

SMILES: C/C(=C\c1csc(NC(=O)c2cccn2Cc2ccncc2)n1)c1ccc(OC(F)(F)F)cn1 [Compound E5, (E)-1-(pyridin-4-ylmethyl)-N-(4-(2-(5-(trifluoromethoxy)pyridin-2-yl)prop-1-en-1-yl)thiazol-2-yl)-1H-pyrrole-2-carboxamide]
- IC50 [1]: 1.06 µM
- EC50 [2]: 19.6 µM
- Liver Microsome Stability (Multiple Species): Rat - % Remaining after 30 min w/NADPH [3]: 46.1%
- IC50 [4]: 0.125 µM
- IC50 [5]: 1.23 µM
- 24 hr Dox Inducible IL2FLGluc 293FRT/TO: IL2/PD1 [5]: 9.8
- Liver Microsome Stability (Multiple Species): Monkey - % Remaining after 30 min w/NADPH [6]: 2.47%
- Liver Microsome Stability (Multiple Species): Mouse - % Remaining after 30 min w/NADPH [7]: 16.7%
- IC50 [8]: > 25 µM
- 24 hr Dox Inducible TNFaFLGluc 293FRT/TO: TNF/PD1 [8]: >199
- Liver Microsome Stability (Multiple Species): Human - % Remaining after 30 min w/NADPH [9]: 5.77%
- EC50 [10]: 8.09 µM

SMILES: O=C(Nc1nc(CCC2CCCCO2)cs1)c1cccn1Cc1ccncc1 (stereo not drawn) [Compound E6, 1-(pyridin-4-ylmethyl)-N-(4-(2-(tetrahydro-2H-pyran-2-yl)ethyl)thiazol-2-yl)-1H-pyrrole-2-carboxamide]
- IC50 [1]: 1.28 µM
- EC50 [2]: > 25 µM
- Liver Microsome Stability (Multiple Species): Rat - % Remaining after 30 min w/NADPH [3]: 0.75%
- IC50 [4]: 0.208 µM
- IC50 [5]: 1.78 µM
- 24 hr Dox Inducible IL2FLGluc 293FRT/TO: IL2/PD1 [5]: 8.6
- Liver Microsome Stability (Multiple Species): Monkey - % Remaining after 30 min w/NADPH [6]: 0.57%
- Liver Microsome Stability (Multiple Species): Mouse - % Remaining after 30 min w/NADPH [7]: 1.82%
- IC50 [8]: 6.04 µM
- 24 hr Dox Inducible TNFaFLGluc 293FRT/TO: TNF/PD1 [8]: 29.1
- Liver Microsome Stability (Multiple Species): Human - % Remaining after 30 min w/NADPH [9]: 0.67%
- EC50 [10]: 24.2 µM

SMILES: O=C(Nc1nc(CCc2ccc(OC(F)(F)F)cn2)cs1)c1cccn1Cc1ccncc1 [Compound E7, 1-(pyridin-4-ylmethyl)-N-(4-(2-(5-(trifluoromethoxy)pyridin-2-yl)ethyl)thiazol-2-yl)-1H-pyrrole-2-carboxamide]
- IC50 [1]: 0.947 µM
- EC50 [2]: > 25 µM
- Liver Microsome Stability (Multiple Species): Rat - % Remaining after 30 min w/NADPH [3]: 0.28%
- IC50 [4]: 0.158 µM
- IC50 [5]: 1.19 µM
- 24 hr Dox Inducible IL2FLGluc 293FRT/TO: IL2/PD1 [5]: 7.5
- Liver Microsome Stability (Multiple Species): Monkey - % Remaining after 30 min w/NADPH [6]: 0.23%
- Liver Microsome Stability (Multiple Species): Mouse - % Remaining after 30 min w/NADPH [7]: 0.38%
- IC50 [8]: 2.76 µM
- 24 hr Dox Inducible TNFaFLGluc 293FRT/TO: TNF/PD1 [8]: 17.4
- Liver Microsome Stability (Multiple Species): Human - % Remaining after 30 min w/NADPH [9]: 0.1%
- EC50 [10]: > 25 µM

SMILES: O=C(Nc1nc(CCc2ccccn2)cs1)c1cccn1Cc1ccncc1 [Compound E8, N-(4-(2-(pyridin-2-yl)ethyl)thiazol-2-yl)-1-(pyridin-4-ylmethyl)-1H-pyrrole-2-carboxamide]
- IC50 [1]: 4.96 µM
- EC50 [2]: > 25 µM
- Liver Microsome Stability (Multiple Species): Rat - % Remaining after 30 min w/NADPH [3]: 2.86%
- IC50 [4]: 0.695 µM
- IC50 [5]: 5.05 µM
- 24 hr Dox Inducible IL2FLGluc 293FRT/TO: IL2/PD1 [5]: 7.3
- Liver Microsome Stability (Multiple Species): Monkey - % Remaining after 30 min w/NADPH [6]: 0.02%
- Liver Microsome Stability (Multiple Species): Mouse - % Remaining after 30 min w/NADPH [7]: 0.6%
- IC50 [8]: > 25 µM
- 24 hr Dox Inducible TNFaFLGluc 293FRT/TO: TNF/PD1 [8]: >35.9
- Liver Microsome Stability (Multiple Species): Human - % Remaining after 30 min w/NADPH [9]: 0.01%
- EC50 [10]: > 25 µM

SMILES: O=C(Nc1nc(CC2CCCCO2)cs1)c1cccn1Cc1ccncc1 (stereo not drawn) [Compound E9, 1-(pyridin-4-ylmethyl)-N-(4-((tetrahydro-2H-pyran-2-yl)methyl)thiazol-2-yl)-1H-pyrrole-2-carboxamide]
- IC50 [1]: 3.92 µM
- EC50 [2]: > 25 µM
- Liver Microsome Stability (Multiple Species): Rat - % Remaining after 30 min w/NADPH [3]: 4.69%
- IC50 [4]: 0.775 µM
- IC50 [5]: 3.64 µM
- 24 hr Dox Inducible IL2FLGluc 293FRT/TO: IL2/PD1 [5]: 4.7
- Liver Microsome Stability (Multiple Species): Monkey - % Remaining after 30 min w/NADPH [6]: 2.42%
- Liver Microsome Stability (Multiple Species): Mouse - % Remaining after 30 min w/NADPH [7]: 19%
- IC50 [8]: 19.5 µM
- 24 hr Dox Inducible TNFaFLGluc 293FRT/TO: TNF/PD1 [8]: 25.1
- Liver Microsome Stability (Multiple Species): Human - % Remaining after 30 min w/NADPH [9]: 0.86%
- EC50 [10]: > 25 µM

SMILES: O=C(Nc1nc([C@H]2CCCN2c2ccccc2)cs1)c1cccn1CCCc1cccnc1 [Compound E10, (R)-N-(4-(1-phenylpyrrolidin-2-yl)thiazol-2-yl)-1-(3-(pyridin-3-yl)propyl)-1H-pyrrole-2-carboxamide]
- IC50 [1]: 4.93 µM
- EC50 [2]: > 25 µM
- Liver Microsome Stability (Multiple Species): Rat - % Remaining after 30 min w/NADPH [3]: 0.39%
- IC50 [4]: 5.76 µM
- IC50 [5]: 5.41 µM
- 24 hr Dox Inducible IL2FLGluc 293FRT/TO: IL2/PD1 [5]: 0.94
- Liver Microsome Stability (Multiple Species): Monkey - % Remaining after 30 min w/NADPH [6]: 0.06%
- Liver Microsome Stability (Multiple Species): Mouse - % Remaining after 30 min w/NADPH [7]: 0.46%
- IC50 [8]: > 25 µM
- 24 hr Dox Inducible TNFaFLGluc 293FRT/TO: TNF/PD1 [8]: >4.34
- Liver Microsome Stability (Multiple Species): Human - % Remaining after 30 min w/NADPH [9]: 0.37%
- EC50 [10]: > 25 µM

SMILES: O=C(Nc1nc(Cc2ccccn2)cs1)c1cccn1Cc1ccncc1 [Compound E11, N-(4-(pyridin-2-ylmethyl)thiazol-2-yl)-1-(pyridin-4-ylmethyl)-1H-pyrrole-2-carboxamide]
- IC50 [1]: 8.17 µM
- EC50 [2]: > 25 µM
- Liver Microsome Stability (Multiple Species): Rat - % Remaining after 30 min w/NADPH [3]: 2.06%
- IC50 [4]: 2.18 µM
- IC50 [5]: 8.24 µM
- 24 hr Dox Inducible IL2FLGluc 293FRT/TO: IL2/PD1 [5]: 3.8
- Liver Microsome Stability (Multiple Species): Monkey - % Remaining after 30 min w/NADPH [6]: 1.33%
- Liver Microsome Stability (Multiple Species): Mouse - % Remaining after 30 min w/NADPH [7]: 0.36%
- IC50 [8]: > 25 µM
- 24 hr Dox Inducible TNFaFLGluc 293FRT/TO: TNF/PD1 [8]: >11.4
- Liver Microsome Stability (Multiple Species): Human - % Remaining after 30 min w/NADPH [9]: 0.97%
- EC50 [10]: > 25 µM

SMILES: O=C(Nc1nc(CCc2coc(-c3ccccc3)n2)cs1)c1cccn1Cc1ccncc1 [Compound E12, N-(4-(2-(2-phenyloxazol-4-yl)ethyl)thiazol-2-yl)-1-(pyridin-4-ylmethyl)-1H-pyrrole-2-carboxamide]
- IC50 [1]: 0.213 µM
- EC50 [2]: > 25 µM
- Liver Microsome Stability (Multiple Species): Rat - % Remaining after 30 min w/NADPH [3]: 0.83%
- IC50 [4]: 0.124 µM
- IC50 [5]: 0.432 µM
- 24 hr Dox Inducible IL2FLGluc 293FRT/TO: IL2/PD1 [5]: 3.5
- Liver Microsome Stability (Multiple Species): Monkey - % Remaining after 30 min w/NADPH [6]: 0.19%
- Liver Microsome Stability (Multiple Species): Mouse - % Remaining after 30 min w/NADPH [7]: 0.23%
- IC50 [8]: 7.89 µM
- 24 hr Dox Inducible TNFaFLGluc 293FRT/TO: TNF/PD1 [8]: 63.4
- Liver Microsome Stability (Multiple Species): Human - % Remaining after 30 min w/NADPH [9]: 0.45%
- EC50 [10]: > 25 µM

SMILES: CC(c1ccncc1)n1cccc1C(=O)Nc1nc([C@H]2CCCN2c2ccccc2)cs1 (stereo partly drawn) [Compound E13, N-(4-((R)-1-phenylpyrrolidin-2-yl)thiazol-2-yl)-1-(1-(pyridin-4-yl)ethyl)-1H-pyrrole-2-carboxamide]
- IC50 [1]: 0.114 µM
- EC50 [2]: > 25 µM
- Liver Microsome Stability (Multiple Species): Rat - % Remaining after 30 min w/NADPH [3]: 10.1%
- IC50 [4]: 0.0533 µM
- IC50 [5]: 0.184 µM
- 24 hr Dox Inducible IL2FLGluc 293FRT/TO: IL2/PD1 [5]: 3.4
- Liver Microsome Stability (Multiple Species): Monkey - % Remaining after 30 min w/NADPH [6]: 0.67%
- Liver Microsome Stability (Multiple Species): Mouse - % Remaining after 30 min w/NADPH [7]: 1.95%
- IC50 [8]: 0.832 µM
- 24 hr Dox Inducible TNFaFLGluc 293FRT/TO: TNF/PD1 [8]: 15.6
- Liver Microsome Stability (Multiple Species): Human - % Remaining after 30 min w/NADPH [9]: 5.08%
- EC50 [10]: 5.91 µM

— patent US20230286973A1, “PROTEIN SECRETION INHIBITORS” (KEZAR LIFE SCIENCES, priority 2020, published 2023)
